For one assay, the target named is KDR (VEGFR2) (Homo sapiens, UniProt P35968). In words: Z'-LYTE SelectScreen biochemical kinase assay KDR (VEGFR2).
The next assay relates to Aβ42 production. In words: Inhibition of Aβ42 production in H4 neuroglioma cells stably expressing human APP695 (MSD electrochemiluminescence). Type of assay: cell-based.
The target in the next assay is CDK5/p35 (Homo sapiens, UniProt Q00535). In words: Z'-LYTE SelectScreen biochemical kinase assay CDK5/p35.
In a further assay the test system is Aβ total. In words: Aβ total levels in H4 neuroglioma cells stably expressing human APP695 (MSD electrochemiluminescence). Type of assay: cell-based. Particulars: selectivity ratio vs. Aβtotal. In a few lines: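 H4 cells expressing human APP695, plated near confluency, exposed 22 h at 37 °C to compounds over 30 μM–0.1 nM (0.5% DMSO final). Supernatant Aβ total quantified by MSD electrochemiluminescence immunoassay.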

Setting [1] is: 10 μmolar compound concentration, ATP at Km app, read-out: KDR (VEGFR2) inhibition.
The mark [2] stands for this setting: 10 μmolar compound concentration, ATP at Km app, read-out: CDK5/p35 inhibition.
The mark [3] stands for this setting: read-out: % Inhibition mean KDR (VEGFR2).
Where [4] appears, read: H4 neuroglioma cells expressing human APP695, 22 hours incubation, Table 4a.
[5] abbreviates: read-out: % Inhibition mean CDK5/p35.

Usually IC50 stands for the concentration that gives 50% inhibition. A high value points to a need for much substance.

Where two headings read alike, the source gives them in different places.

Sequence of KDR (VEGFR2) (P35968 20-1356): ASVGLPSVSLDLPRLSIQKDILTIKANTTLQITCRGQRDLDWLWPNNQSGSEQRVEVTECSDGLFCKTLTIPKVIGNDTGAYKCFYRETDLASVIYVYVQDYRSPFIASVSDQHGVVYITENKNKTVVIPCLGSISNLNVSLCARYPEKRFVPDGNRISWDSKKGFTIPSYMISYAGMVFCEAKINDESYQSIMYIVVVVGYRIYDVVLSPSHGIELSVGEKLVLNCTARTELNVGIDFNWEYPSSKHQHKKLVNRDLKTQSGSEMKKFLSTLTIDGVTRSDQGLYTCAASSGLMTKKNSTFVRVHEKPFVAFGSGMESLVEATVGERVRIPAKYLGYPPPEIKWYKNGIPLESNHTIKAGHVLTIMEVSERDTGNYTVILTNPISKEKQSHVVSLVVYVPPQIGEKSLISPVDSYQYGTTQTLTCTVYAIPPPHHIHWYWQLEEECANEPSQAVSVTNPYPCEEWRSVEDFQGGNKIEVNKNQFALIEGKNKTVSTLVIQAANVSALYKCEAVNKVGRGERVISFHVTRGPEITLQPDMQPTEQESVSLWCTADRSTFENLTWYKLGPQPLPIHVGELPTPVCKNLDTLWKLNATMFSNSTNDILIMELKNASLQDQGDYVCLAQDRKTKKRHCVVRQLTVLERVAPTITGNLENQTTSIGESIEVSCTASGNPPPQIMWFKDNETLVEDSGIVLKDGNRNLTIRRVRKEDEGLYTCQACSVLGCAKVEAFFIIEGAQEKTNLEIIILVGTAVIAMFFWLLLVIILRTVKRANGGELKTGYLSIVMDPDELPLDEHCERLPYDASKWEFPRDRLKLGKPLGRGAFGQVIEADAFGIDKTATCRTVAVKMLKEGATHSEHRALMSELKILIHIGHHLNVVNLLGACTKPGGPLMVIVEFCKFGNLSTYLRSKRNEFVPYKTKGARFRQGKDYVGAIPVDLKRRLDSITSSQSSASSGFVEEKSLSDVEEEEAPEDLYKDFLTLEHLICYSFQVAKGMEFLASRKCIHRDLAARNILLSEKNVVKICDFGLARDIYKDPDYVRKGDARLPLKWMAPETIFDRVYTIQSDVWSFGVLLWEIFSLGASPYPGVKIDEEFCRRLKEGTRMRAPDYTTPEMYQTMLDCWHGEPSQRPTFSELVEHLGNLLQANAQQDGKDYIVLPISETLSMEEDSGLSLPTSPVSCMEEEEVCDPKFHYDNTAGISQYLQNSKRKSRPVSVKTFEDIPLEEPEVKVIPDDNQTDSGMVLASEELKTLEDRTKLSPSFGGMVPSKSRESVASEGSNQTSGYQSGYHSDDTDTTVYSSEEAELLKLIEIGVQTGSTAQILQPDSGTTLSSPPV
Sequence of CDK5/p35 (Q00535 whole entry): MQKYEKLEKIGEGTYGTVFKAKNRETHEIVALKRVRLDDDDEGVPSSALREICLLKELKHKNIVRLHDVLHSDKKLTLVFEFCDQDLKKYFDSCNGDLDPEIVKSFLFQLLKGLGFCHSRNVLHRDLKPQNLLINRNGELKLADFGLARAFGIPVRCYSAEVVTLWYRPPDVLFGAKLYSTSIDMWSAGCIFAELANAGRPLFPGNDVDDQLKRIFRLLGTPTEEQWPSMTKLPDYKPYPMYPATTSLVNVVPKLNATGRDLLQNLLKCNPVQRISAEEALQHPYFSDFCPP
Sequence of CDK5/p35 (Q15078 whole entry partner): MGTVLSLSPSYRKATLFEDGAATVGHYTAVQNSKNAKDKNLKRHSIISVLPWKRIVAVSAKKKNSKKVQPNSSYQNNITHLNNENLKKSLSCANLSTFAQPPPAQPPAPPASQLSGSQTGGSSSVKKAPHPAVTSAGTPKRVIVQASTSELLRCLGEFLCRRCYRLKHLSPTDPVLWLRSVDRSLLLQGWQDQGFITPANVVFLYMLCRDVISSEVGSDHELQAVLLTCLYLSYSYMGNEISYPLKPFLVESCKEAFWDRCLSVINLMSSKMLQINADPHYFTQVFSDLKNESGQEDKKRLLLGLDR

For `CC1(C)C(=O)Nc2ccc(Nc3nc4c(-c5cccc(F)c5)cccn4n3)cc21` [Cpd. 263 in WO09155551, reference compound], the inhibition at 10 µM on KDR (VEGFR2) (setting [1]) was over 80%; at KDR (VEGFR2) (read-out: % Inhibition mean), 99%; at CDK5/p35 (setting [2]), over 80%; on CDK5/p35 (read-out: % Inhibition mean), 83%. The compound further had a half-maximal inhibitory concentration (IC50) in the assay on Aβ42 production (Homo sapiens, H4 neuroglioma cells, same assay as table 4a, prior art compounds, Table 4b) of 6000 nM. For the same compound, the “modulation of γ-secretase (in words)” value in the assay with Aβ42 production (tables 4a/4b) is recorded as “rather poor modulation”. The “Ratio AβTotal IC50/Aβ42 IC50” value with Aβ total (prior art compounds, Table 4b) is 2.
On to `Cc1cc(F)ccc1-c1cccn2nc(NC3CCc4c(cnn4C(C)C)C3)nc12` (stereo not shown) [Example 44, [8-(4-fluoro-2-methyl-phenyl)-[1,2,4]triazolo[1,5-a]pyridine-2-yl]-(1-isopropyl-4,5,6,7-tetrahydro-1H-indazol-5-yl)-amine], for which the inhibition at 10 µM at KDR (VEGFR2) (setting [1]) is under 40%; at KDR (VEGFR2) (setting [3]) it was 3%; at CDK5/p35 (setting [2]) it was under 40%; on CDK5/p35 (setting [5]), 25%. In the assay on Aβ42 production (setting [4]), this compound came in with an IC50 of 430 nM. In the assay with Aβ total (Table 4a), the “Ratio AβTotal IC50/Aβ42 IC50” value stood at 64.
For `CCn1ncc2c1CCC(Nc1nc3c(-c4ccc(F)cc4C)cccn3n1)C2` (stereo not shown) [Example 42, (1-Ethyl-4,5,6,7-tetrahydro-1H-indazol-5-yl)-[8-(4-fluoro-2-methyl-phenyl)-[1,2,4]triazolo[1,5-a]pyridine-2-yl]-amine], the inhibition at 10 µM was under 40% on KDR (VEGFR2) (setting [1]), -3% on KDR (VEGFR2) (setting [3]), under 40% at CDK5/p35 (setting [2]) and 39% at CDK5/p35 (setting [5]). The compound also returned an IC50 in the assay on Aβ42 production (setting [4]) of 70 nM. In the assay with Aβ total (Table 4a), the “Ratio AβTotal IC50/Aβ42 IC50” value turned out to be 23.
Take `CCc1nn(C)c2c1CCC(Nc1nc3c(-c4ccc(F)cc4C)cccn3n1)C2` (stereo not shown) [Example 54, (3-Ethyl-1-methyl-4,5,6,7-tetrahydro-1H-indazol-6-yl)-[8-(4-fluoro-2-methyl-phenyl)-[1,2,4]triazolo[1,5-a]pyridine-2-yl]-amine]: the inhibition at 10 µM at KDR (VEGFR2) (setting [1]) is under 40%; on KDR (VEGFR2) (setting [3]) it was 5%; on CDK5/p35 (setting [2]), under 40%; at CDK5/p35 (setting [5]) it was 18%. Also, half-maximal inhibition in the assay with Aβ42 production (setting [4]) (IC50) required 3130 nM. In addition, in the assay on Aβ total (Table 4a), the “Ratio AβTotal IC50/Aβ42 IC50” value stood at 10.
Consider `CCn1ncc2c1CCC(Nc1nc3c(-c4ccc(F)cc4)cccn3n1)C2` (stereo not shown) [Example 55, (1-Ethyl-4,5,6,7-tetrahydro-1H-indazol-5-yl)-[8-(4-fluoro-phenyl)-[1,2,4]triazolo[1,5-a]pyridine-2-yl]-amine], for which the inhibition at 10 µM at KDR (VEGFR2) (setting [1]) was under 40%; on KDR (VEGFR2) (setting [3]), 12%; on CDK5/p35 (setting [2]), under 40%; on CDK5/p35 (setting [5]), 13%. The compound also displayed an IC50 in the assay with Aβ42 production (setting [4]) of 180 nM. For the same compound, the “Ratio AβTotal IC50/Aβ42 IC50” value in the assay with Aβ total (Table 4a) was found to be 120.
`CCn1ncc2c1CCC(Nc1nc3c(-c4ccc(C)nc4)cccn3n1)C2` (stereo not shown) [Example 67, (1-Ethyl-4,5,6,7-tetrahydro-1H-indazol-5-yl)-[8-(6-methyl-pyridin-3-yl)-[1,2,4]triazolo[1,5-a]pyridine-2-yl]-amine]: the inhibition at 10 µM was under 40% at KDR (VEGFR2) (setting [1]), 15% on KDR (VEGFR2) (setting [3]), under 40% on CDK5/p35 (setting [2]) and 35% at CDK5/p35 (setting [5]). In addition, in the assay with Aβ42 production (setting [4]), the IC50 came out at 670 nM. For the same compound, the “Ratio AβTotal IC50/Aβ42 IC50” value with Aβ total (Table 4a) came out at 45.
Take `Cc1cc(F)ccc1-c1cccn2nc(NC3CCc4cnn(C)c4C3)nc12` (stereo not shown) [Example 40, [8-(4-Fluoro-2-methyl-phenyl)-[1,2,4]triazolo[1,5-a]pyridine-2-yl]-(1-methyl-4,5,6,7-tetrahydro-1H-indazol-6-yl)-amine]: the inhibition at 10 µM at KDR (VEGFR2) (setting [1]) was under 40%; on KDR (VEGFR2) (setting [3]), -10%; on CDK5/p35 (setting [2]), 40 to 80%; on CDK5/p35 (setting [5]) it was 61%. The same compound displayed a half-inhibitory concentration (IC50) in the assay on Aβ42 production (setting [4]) of over 30000 nM. Further, the “Ratio AβTotal IC50/Aβ42 IC50” value with Aβ total (Table 4a) is reported as 1.
Consider `CCn1ncc2c1CCC(Nc1nc3c(-c4ccc(OC)nc4)cccn3n1)C2` (stereo not shown) [Example 71, (1-Ethyl-4,5,6,7-tetrahydro-1H-indazol-5-yl)-[8-(6-methoxy-pyridin-3-yl)-[1,2,4]triazolo[1,5-a]pyridine-2-yl]-amine], for which the inhibition at 10 µM on KDR (VEGFR2) (setting [1]) was under 40%; at KDR (VEGFR2) (setting [3]) it was 17%; at CDK5/p35 (setting [2]), 40 to 80%; on CDK5/p35 (setting [5]), 53%. In the assay on Aβ42 production (setting [4]), this compound came in with an IC50 of 90 nM. The “Ratio AβTotal IC50/Aβ42 IC50” value with Aβ total (Table 4a) was 332.
For `CCn1nnc2c1CCC(Nc1nc3c(-c4ccc(F)cc4C)cccn3n1)C2` (stereo not shown) [Example 51, (1-Ethyl-4,5,6,7-tetrahydro-1H-benzotriazol-5-yl)-[8-(4-fluoro-2-methyl-phenyl)-[1,2,4]triazolo[1,5-a]pyridine-2-yl]-amine], the inhibition at 10 µM on KDR (VEGFR2) (setting [1]) was under 40%; on KDR (VEGFR2) (setting [3]), -10%; on CDK5/p35 (setting [2]), under 40%; on CDK5/p35 (setting [5]), 23%. In the assay with Aβ42 production (setting [4]), this compound registered a concentration for half-maximal inhibition (IC50) of 2200 nM. For the same compound, the “Ratio AβTotal IC50/Aβ42 IC50” value in the assay with Aβ total (Table 4a) is given as 2.

The values are drawn from patent US11339161B2, “Triazolo pyridines as modulators of gamma-secretase” (Boehringer Ingelheim International GmbH, priority 2017, dated 2022).
